These results are taken from paper PMC7874389 (Nature, 2020).

Series [1] has as its system mouse primary sensory cortex. The series can be described thus: In vivo spine dynamics, transcranial 2-photon imaging. Particulars: 24 h after treatment; DOI 10 mg/kg, TBG 50 mg/kg i.p.
The test system of the next series is larval zebrafish. The series can be described thus: Larval zebrafish behavioral profiling. Format: in vivo. Particulars: 1–200 μM, 7 dpf, battery of light and acoustic stimuli.
Another series has as its system C57/BL6J mice. The series can be described thus: Forced swim test in the absence of UMS. Format: in vivo, mouse.
Series [2] deals with larval zebrafish expressing GCaMP5. The series can be described thus: Larval zebrafish seizure experiments. It counts as in vivo. Particulars: IBO and TBG 50 μM, PTZ 15 mM, 1 h.
Series [3] has as its system C57BL/6J mice. Particulars: cited from earlier work.
For series [4], the system named is rodents trained to discriminate DOM from saline. Particulars: cited from earlier work.
The test system of series [5] is C57BL/6J mice. The series can be described thus: Head-twitch response. Particulars: i.p., 5-MeO-DMT 10 mg/kg, IBG and TBG fumarate salts 10 and 50 mg/kg.

`COc1cc(CC(C)N)c(OC)cc1I` (centres unmarked) [DOI, 2,5-dimethoxy-4-iodoamphetamine]: in series [1], the spine elimination result is given as “without impacting spine elimination” and the spine formation result was “increased spine formation”.

For `O=C(CCCN1CCC(O)(c2ccc(Cl)cc2)CC1)c1ccc(F)cc1` [haloperidol], the “behavioral profile versus vehicle and lethal (eugenol) controls” value with larval zebrafish is on record as “more closely resembling the lethal control”.

Consider picrotoxin, for which, in the series with larval zebrafish, the “behavioral profile versus vehicle and lethal (eugenol) controls” value is “produce behavioral phenotypes more closely resembling a lethal phenotype”.

On to `CNC1(c2ccccc2Cl)CCCCC1=O` (centres unmarked) [KET, ketamine], for which the FST immobility entry in the series with C57/BL6J mice (24 h following administration, TBG 50 mg/kg, ketamine 3 mg/kg i.p.) is recorded as “significantly reduced immobility”. Besides, the “durability of FST effect” value with C57/BL6J mice (7 d post drug administration) is listed as “appeared to be more durable”.

In the case of `O=S1OCC2C(CO1)C1(Cl)C(Cl)=C(Cl)C2(Cl)C1(Cl)Cl` (centres unmarked) [endosulfan], the “behavioral profile versus vehicle and lethal (eugenol) controls” value with larval zebrafish is reported as “produce behavioral phenotypes more closely resembling a lethal phenotype”.

As for `C1CCc2nnnn2CC1` [PTZ, pentylenetetrazole], the “behavioral profile versus vehicle and lethal (eugenol) controls” value with larval zebrafish is reported as “produce behavioral phenotypes more closely resembling a lethal phenotype”. Also, the “seizurogenic potential (neural activity, GCaMP5 fluorescence)” value in series [2] was “excessive neural activity”.

Consider `O=C1NCCN1CCN1CCC(c2cn(-c3ccc(F)cc3)c3ccc(Cl)cc23)CC1` [sertindole], for which the “behavioral profile versus vehicle and lethal (eugenol) controls” value in the series on larval zebrafish is listed as “more closely resembling the lethal control”.

On to `CC(C)(C)c1ccc(C(O)CCCN2CCC(C(O)(c3ccccc3)c3ccccc3)CC2)cc1` (centres unmarked) [terfenadine], for which the “behavioral profile versus vehicle and lethal (eugenol) controls” value in the series on larval zebrafish is “more closely resembling the lethal control”.

As to `COc1ccc2c(CCN(C)C)c[nH]c2c1` [6-MeO-DMT], the head-twitch response result with C57BL/6J mice [3] is on record as “does not produce a head-twitch response”. Further, the “substitution for DOM” value in series [4] is “did not substitute for the hallucinogen 2,5-dimethoxy-4-methylamphetamine (DOM) at any dose”.

As to `COc1ccc2[nH]cc(CCN(C)C)c2c1` [5-MeO-DMT, 5-methoxy-N,N-dimethyltryptamine], in the series on C57BL/6J mice [5], the “head-twitch response (hallucinogenic potential)” value was “produces a robust HTR”.
